# Results from US7923228B2, “Methods and compositions for growth of hydrocarbons in Botryococcus sp” (priority 2005, dated 2011).
# Tested on: Botryococcus sp. colonies
# Experiment: Flotation (buoyancy) of sunken colonies as visual readout of hydrocarbon content
# Type: cell-based
# Source text: Previous investigations (Ohmori, et al. 1984; and Wolf, et al, 1985) verified that colonies containing greater than 20% of dry weight as botryococcenoid hydrocarbons were buoyant and that colonies containing less than 5% hydrocarbons remained sunken at the bottom of the culture vessel, providing a visual method for selecting cells with commercial-grade hydrocarbons. […] Colonies in hydrocarbon-enhancement were placed in the dark without supplemental carbon dioxide gas to eliminate artifacts of flotation from bubbles. Environmental conditions were 150 μE/m^2/sec PAR to 1700 μE/m^2/sec PAR at 25-37° Centigrade. Nutrient chemicals were reagent grade in all laboratory-scale experiments. In field-scale tests, fertilizer grade chemical nutrients were provided. In order to minimize or eliminate ammonia, nitrates were optionally kiln dried prior to admixture. Supplementation with 0.1% to 100% carbon dioxide gas or carbonate (e.g., 10 mg/ml sodium bicarbonate or potassium bicarbonate) increased hydrocarbon synthesis substantially, especially, when under the highest light intensities with soluble elements of the present invention. […]
substance,measurement,setting,value
phosphates,total phosphate concentration that stimulated the rise of colonies to the surface,"subtractive matrix analysis, most rapid in presence of soluble Mg, Mn, Fe, Zn+2",greater than 80 mM
same,state of colonies after long exposure,two weeks or more in 300 mM phosphate,"remained floating, but cleared to amber"
